# From patent US20230212229A1 (priority 2021, published 2023)
# Where “and” joins values, the source holds several entries; their conditions need not be identical. Identical values can stand only once. Like-named read-outs stand apart in the source and are kept apart here.
# Experiments:
# SARS-CoV-2 [1] = type: in vivo, ACE2 transgenic mice; conditions: for SARS-CoV-2 copies/μL: lung tissue, 0.5 mg NIP-V injected 1 h before intranasal 1×10^5 TCID50, individual mice n = 8
# SARS-CoV-2 [2] = type: in vivo, ACE2 transgenic mice; conditions: lungs 24 h after infection
# SARS-CoV-2 S protein = type: in vivo, ACE2 transgenic mice; conditions: 0.5 mg NIP-V; lungs 24 h after infection; versus PBS+SARS-CoV-2
# IFN-β = type: in vivo, ACE2 transgenic mice; conditions: for IFN-β in serum: 0.5 mg NIP-V, individual mice n = 8
# Ifnb1 mRNA = type: in vivo, ACE2 transgenic mice; conditions: for Ifnb1 mRNA: relative to unstimulated mice, individual mice n = 8
# Isg56 mRNA = type: in vivo, ACE2 transgenic mice; conditions: for Isg56 mRNA: relative to unstimulated mice, individual mice n = 8
# SARS-CoV-2 genomic RNA = assay: qPCR of the load of SARS-CoV-2 genomic RNA in spleen, liver and lung tissues; type: in vivo, ACE2 transgenic mice; conditions: for SARS-CoV-2 genomic RNA: individual mice n = 8
# MAVS oligomerization = type: cell-based; conditions: HEK 293T, Myc-NP transfected; 50 μM or 100 μM NIP-V 1 h before SeV stimulation for 8 h
# SARS-CoV-2 N protein = conditions: 0.5 mg NIP-V; lungs 24 h after infection; versus PBS+SARS-CoV-2
# [3] = NIP-V treatment versus PBS-treated group
sequence,measurement,setting,value
IHKNLLIVQDKFPPRRRQRRKKRG [NIP-V],SARS-CoV-2 viral load in lung tissue (in words),"SARS-CoV-2 [1]; NIP-V-treated groups (2 and 4) versus PBS-treated groups, 16 h and 24 h",greatly reduced
same,SARS-CoV-2 copies/μL,SARS-CoV-2 [1]; 16 h after infection,30 copies/μL and 76 copies/μL and 0 copies/μL (3×) and 2484 copies/μL and 131 copies/μL and 726 copies/μL
same,SARS-CoV-2 copies/μL,SARS-CoV-2 [1]; 24 h after infection,3 copies/μL and 0 copies/μL (7×)
same,lung lesions caused by SARS-CoV-2 infection (HE staining),"SARS-CoV-2 [2]; 0.5 mg NIP-V 1 h before infection, versus PBS+SARS-CoV-2",significantly reduce the lung lesions
same,thickening of alveolar septa (HE staining),SARS-CoV-2 [2]; 0.5 mg NIP-V,not significant
same,occurrence of hemagglutination and inflammatory cell infiltration (HE staining),"SARS-CoV-2 [2]; 0.5 mg NIP-V, versus PBS+SARS-CoV-2 group",significantly lower than that in the PBS+SARS-CoV-2 group
same,SARS-CoV-2 S protein signal in lung tissue (immunohistochemistry),SARS-CoV-2 S protein,much lower than that of the PBS+SARS-CoV-2 treated mice
same,content of IFN-β in serum (in words),"IFN-β; NIP-V-treated groups versus PBS-treated groups, 16 h and 24 h",significantly higher than that in the PBS-treated group
same,IFN-β in serum,IFN-β; 16 h after SARS-CoV-2 infection,52.44 pg/mL and 46.60 pg/mL and 50.21 pg/mL and 75.33 pg/mL and 37.97 pg/mL and 52.98 pg/mL and 68.93 pg/mL and 48.49 pg/mL
same,IFN-β in serum,IFN-β; 24 h after SARS-CoV-2 infection,38.29 pg/mL and 38.61 pg/mL and 34.78 pg/mL and 30.95 pg/mL and 44.88 pg/mL and 37.02 pg/mL and 35.42 pg/mL and 45.20 pg/mL
same,Ifnb1 mRNA,"Ifnb1 mRNA; Liver, 16 h",52.55 Fold and 86.45 Fold and 85.91 Fold and 111.15 Fold and 85.02 Fold and 132.00 Fold and 68.88 Fold and 81.36 Fold
same,Ifnb1 mRNA,"Ifnb1 mRNA; Liver, 24 h",22.59 Fold and 79.02 Fold and 29.53 Fold and 33.69 Fold and 42.93 Fold and 49.66 Fold and 31.43 Fold and 45.92 Fold
same,Ifnb1 mRNA,"Ifnb1 mRNA; Lung, 16 h",186.37 Fold and 302.75 Fold and 202.16 Fold and 145.17 Fold and 113.93 Fold and 133.62 Fold and 259.88 Fold and 148.33 Fold
same,Ifnb1 mRNA,"Ifnb1 mRNA; Lung, 24 h",82.49 Fold and 165.42 Fold and 112.99 Fold and 126.62 Fold and 84.22 Fold and 36.61 Fold and 22.54 Fold and 46.19 Fold
same,"expression of Ifnb1 mRNA in spleen, liver and lung tissues (in words)",Ifnb1 mRNA; [3],increase the expression
same,Ifnb1 mRNA,"Ifnb1 mRNA; Spleen, 16 h",87.27 Fold and 42.74 Fold and 73.72 Fold and 58.30 Fold and 67.91 Fold and 98.19 Fold and 64.75 Fold and 70.43 Fold
same,Ifnb1 mRNA,"Ifnb1 mRNA; Spleen, 24 h",45.66 Fold and 36.50 Fold and 51.66 Fold and 47.70 Fold and 40.76 Fold and 71.38 Fold and 47.81 Fold and 45.86 Fold
same,Isg56 mRNA,"Isg56 mRNA; Liver, 16 h",30.49 Fold and 18.13 Fold and 27.16 Fold and 42.29 Fold and 27.58 Fold and 35.86 Fold and 25.80 Fold and 29.09 Fold
same,Isg56 mRNA,"Isg56 mRNA; Liver, 24 h",14.51 Fold and 10.01 Fold and 7.41 Fold and 10.47 Fold and 12.89 Fold and 12.03 Fold and 9.46 Fold and 5.61 Fold
same,Isg56 mRNA,"Isg56 mRNA; Lung, 16 h",92.65 Fold and 109.88 Fold and 67.64 Fold and 46.59 Fold and 99.03 Fold and 85.62 Fold and 91.13 Fold and 26.35 Fold
same,Isg56 mRNA,"Isg56 mRNA; Lung, 24 h",232.32 Fold and 263.20 Fold and 152.15 Fold and 131.60 Fold and 144.01 Fold and 188.71 Fold and 205.07 Fold and 374.81 Fold
same,"expression of Isg56 mRNA in spleen, liver and lung tissues (in words)",Isg56 mRNA; [3],increase the expression
same,Isg56 mRNA,"Isg56 mRNA; Spleen, 16 h",121.34 Fold and 87.49 Fold and 110.12 Fold and 85.19 Fold and 94.54 Fold and 59.17 Fold and 76.17 Fold and 82.88 Fold
same,Isg56 mRNA,"Isg56 mRNA; Spleen, 24 h",73.25 Fold and 63.36 Fold and 55.41 Fold and 62.68 Fold and 45.16 Fold and 32.90 Fold and 56.97 Fold and 36.50 Fold
same,SARS-CoV-2 genomic RNA,"SARS-CoV-2 genomic RNA; Liver, 16 h",2.09E+02 Fold and 1.42E+02 Fold and 8.55E+01 Fold and 1.08E+02 Fold and 1.69E+02 Fold and 6.80E+02 Fold and 8.67E+01 Fold and 2.38E+02 Fold
same,SARS-CoV-2 genomic RNA,"SARS-CoV-2 genomic RNA; Liver, 24 h",6.41E+01 Fold and 4.17E+01 Fold and 4.33E+01 Fold and 1.70E+02 Fold and 5.83E+01 Fold and 5.13E+01 Fold and 3.93E+01 Fold and 2.38E+01 Fold
same,SARS-CoV-2 genomic RNA,"SARS-CoV-2 genomic RNA; Lung, 16 h",5.93E+03 Fold and 4.43E+03 Fold and 2.73E+03 Fold and 1.61E+04 Fold and 1.86E+04 Fold and 1.48E+04 Fold and 8.10E+03 Fold and 3.62E+03 Fold
same,SARS-CoV-2 genomic RNA,"SARS-CoV-2 genomic RNA; Lung, 24 h",4.74E+03 Fold and 3.19E+03 Fold and 3.72E+03 Fold and 1.23E+03 Fold and 1.56E+03 Fold and 1.26E+03 Fold and 1.49E+04 Fold and 0.00E+00 Fold
same,SARS-CoV-2 genomic RNA,"SARS-CoV-2 genomic RNA; Spleen, 16 h",1.66E+03 Fold and 1.40E+03 Fold and 1.37E+03 Fold and 4.78E+02 Fold and 1.60E+03 Fold and 8.65E+02 Fold and 1.33E+03 Fold and 1.15E+03 Fold
same,SARS-CoV-2 genomic RNA,"SARS-CoV-2 genomic RNA; Spleen, 24 h",4.18E+02 Fold and 3.11E+02 Fold and 2.38E+02 Fold and 1.85E+02 Fold and 4.43E+02 Fold and 1.35E+02 Fold and 2.56E+02 Fold and 7.20E+02 Fold
same,"proliferation of SARS-CoV-2 in tissues (qPCR, in words)","SARS-CoV-2 genomic RNA; spleen, liver and lung, NIP-V treatment versus PBS-treated group",inhibit the proliferation of SARS-CoV-2
same,MAVS oligomerization inhibited by SARS-CoV-2 N protein (SDD-PAGE),MAVS oligomerization,restore the MAVS oligomerization in a dose-dependent manner
same,SARS-CoV-2 N protein signal in lung tissue (immunofluorescence),SARS-CoV-2 N protein,weaker N protein signals can be detected
